Test results taken from publication PMC10017709, “Structural basis of selective cannabinoid CB2 receptor activation” (Nature Communications, 2023).
Where “and” joins values, the source holds several entries; their conditions need not be identical. Identical values can stand only once. Like-named read-outs stand apart in the source and are kept apart here.

Columns and labels:
hCB2R [1] = target: T1, hCB2R (Homo sapiens, UniProt P34972); assay: [3H]RO6957022 displacement assay; assay type: binding; details: for percentage specific [3H]RO6957022 binding (displacement): individual replicates
T1 construct: host or cells: CHO-K1 (CHOK1_hCB2bgal, PathHunter), membranes

hCB2R [2] = target: T1, hCB2R; assay: [3H]RO6957022 competition association assay; assay type: binding; details: for percentage specific [3H]RO6957022 binding (competition association): individual replicates
CB2R WT [3] = target: T2, CB2R WT (Homo sapiens, UniProt P34972); assay: [35S]GTPγS G protein activation assay, CB2R WT; assay type: biochemical; details: for Emax: CB2R WT, read-out: Emax (%); for [35S]GTPγS binding, percentage of WT / [35S]GTPγS binding, percentage of CP55,940: individual replicates
CB2R-L185^ECL2H [4] = target: T3, CB2R-L185^ECL2H (Homo sapiens, UniProt P34972, L185H); assay: [35S]GTPγS assay, CB2R L185H mutant; assay type: biochemical; details: L185H mutant
CB2R-L182^ECL2I = CB2R-L182^ECL2I (Homo sapiens, UniProt P34972, L182I); assay: [35S]GTPγS assay, CB2R L182I mutant; assay type: biochemical; details: L182I mutant
CB2R-E181^ECL2D = CB2R-E181^ECL2D (Homo sapiens, UniProt P34972, E181D); assay: [35S]GTPγS assay, CB2R E181D mutant; assay type: biochemical; details: E181D mutant
CB2R-Quadruple^TM1,7 [5] = target: T4, CB2R-Quadruple^TM1,7 (Homo sapiens, UniProt P34972, C40S/K279T/K33Q/V36I); assay: [35S]GTPγS assay, CB2R quadruple mutant; assay type: biochemical; details: for [35S]GTPγS binding, percentage of WT: QuadrupleTM1,7, individual replicates
Procedure: In short, transient HEK293T membrane homogenates (10 µg/well) were diluted in assay buffer (50 mM Tris-HCl (pH 7.4), 5 mM MgCl2, 150 mM NaCl, 1 mM EDTA, 0.05% BSA (w/v) and 1 mM DTT, freshly prepared every day) and were pretreated with 10 µg saponin and 1 µM GDP. For endocannabinoid samples, the membranes were additionally pretreated for 30 min with 50 µM PMSF before agonist addition. […] Basal receptor activity was determined in the presence of vehicle only (0.2% DMSO/acetonitrile). […] Filtration was performed, and filter-bound radioactivity was determined as described under [^3H]RO6957022 Competition Association Assays except for using ice-cold 50 mM Tris-HCl (pH 7.4), 5 mM MgCl2 buffer.

CB2R WT [6] = target: T2, CB2R WT; assay: [3H]CP55,940 displacement assay, CB2R WT; assay type: binding
CB2R-I110^3.29L = CB2R-I110^3.29L (Homo sapiens, UniProt P34972, I110L); assay: [3H]CP55,940 displacement assay, CB2R I110L mutant; assay type: binding
CB2R-L185^ECL2H [7] = target: T3, CB2R-L185^ECL2H; assay: [3H]CP55,940 displacement assay, CB2R L185H mutant; assay type: binding
CB2R-Quadruple^TM1,7 [8] = target: T4, CB2R-Quadruple^TM1,7; assay: [3H]CP55,940 displacement assay, CB2R quadruple mutant; assay type: binding; details: CB2R Quadruple TM1,7 mutant; <5 when curve fit not finished
hCB1R WT = hCB1R WT (Homo sapiens, UniProt P21554); assay: [35S]GTPγS G protein activation assay, CB1R WT; assay type: biochemical; details: CB1R WT; 10 µM agonist
CB1R-L359^6.51V = CB1R-L359^6.51V (Homo sapiens, UniProt P21554, L359V); assay: [35S]GTPγS assay, CB1R L359V mutant; assay type: biochemical; details: CB1R L359V; 10 µM agonist
CB1R-H270^ECL2L = CB1R-H270^ECL2L (Homo sapiens, UniProt P21554, H270L); assay: [35S]GTPγS assay, CB1R H270L mutant; assay type: biochemical; details: CB1R H270L; 10 µM agonist
CB1R I267ECL2L = CB1R I267ECL2L (Homo sapiens, UniProt P21554, I267L); assay: [35S]GTPγS assay, CB1R I267L mutant; assay type: biochemical; details: CB1R I267L; 10 µM agonist
CB1R D266ECL2E = target: T5, CB1R D266ECL2E (Homo sapiens, UniProt P21554, D266E); assay: [35S]GTPγS assay, CB1R D266E mutant; assay type: biochemical; details: CB1R D266E; 10 µM agonist
T5 construct: The WT CB1R and CB2R genes were subcloned into vector pcDNA3.1; HA signal peptide (N); expressed in transfected cells; host or cells: HEK293T (transient, membrane homogenates)

CB1R QuadrupleTM1,7 = assay: [35S]GTPγS assay, CB1R quadruple mutant; assay type: biochemical, human; details: CB1R Quadruple TM1,7; 10 µM agonist
[9] = at 10 µM compared to WT, read-out: Emax (%)

T2 sequence (P34972 whole entry): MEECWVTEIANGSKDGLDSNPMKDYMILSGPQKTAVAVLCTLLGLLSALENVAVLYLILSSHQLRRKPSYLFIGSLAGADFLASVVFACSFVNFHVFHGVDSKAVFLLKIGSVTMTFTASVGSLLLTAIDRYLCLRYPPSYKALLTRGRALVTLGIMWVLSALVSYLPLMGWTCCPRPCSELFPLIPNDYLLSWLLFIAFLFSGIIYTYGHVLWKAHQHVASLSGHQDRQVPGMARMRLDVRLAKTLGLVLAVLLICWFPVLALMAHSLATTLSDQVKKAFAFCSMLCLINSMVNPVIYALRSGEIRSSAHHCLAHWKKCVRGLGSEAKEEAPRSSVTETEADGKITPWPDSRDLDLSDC
T1 sequence (P34972 whole entry): as above
T4 sequence (P34972 whole entry K33Q/V36I/C40S/K279T): as the sequence (P34972 whole entry) above, with K33Q, V36I, C40S, K279T counted along it
T3 sequence (P34972 whole entry L185H): as the sequence (P34972 whole entry) above, with L185H counted along it
Sequence of CB2R-E181^ECL2D (P34972 whole entry E181D): as the sequence (P34972 whole entry) above, with E181D counted along it
Sequence of CB2R-L182^ECL2I (P34972 whole entry L182I): as the sequence (P34972 whole entry) above, with L182I counted along it
T5 sequence (P21554 whole entry D266E): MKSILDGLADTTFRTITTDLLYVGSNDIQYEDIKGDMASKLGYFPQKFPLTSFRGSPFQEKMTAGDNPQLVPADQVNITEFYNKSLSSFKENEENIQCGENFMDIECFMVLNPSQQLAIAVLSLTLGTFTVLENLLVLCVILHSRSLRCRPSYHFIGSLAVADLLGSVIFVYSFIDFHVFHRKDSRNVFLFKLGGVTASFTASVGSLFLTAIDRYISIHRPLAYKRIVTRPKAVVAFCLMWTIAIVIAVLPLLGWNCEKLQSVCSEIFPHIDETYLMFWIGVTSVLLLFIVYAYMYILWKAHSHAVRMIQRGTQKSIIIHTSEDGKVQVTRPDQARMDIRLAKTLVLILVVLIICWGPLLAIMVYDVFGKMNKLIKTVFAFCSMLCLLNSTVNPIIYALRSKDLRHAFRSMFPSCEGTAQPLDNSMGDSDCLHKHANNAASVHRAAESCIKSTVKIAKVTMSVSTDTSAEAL
Sequence of CB1R-H270^ECL2L (P21554 whole entry H270L): as the sequence (P21554 whole entry D266E) above, with E266D, H270L counted along it
Sequence of CB1R-L359^6.51V (P21554 whole entry L359V): as the sequence (P21554 whole entry D266E) above, with E266D, L359V counted along it
Sequence of CB1R I267ECL2L (P21554 whole entry I267L): as the sequence (P21554 whole entry D266E) above, with E266D, I267L counted along it
Sequence of hCB1R WT (P21554 whole entry): as the sequence (P21554 whole entry D266E) above, with E266D counted along it
Sequence of CB2R-I110^3.29L (P34972 whole entry I110L): as the sequence (P34972 whole entry) above, with I110L counted along it

`CCCCC/C=C\C/C=C\C/C=C\C/C=C\CCCC(=O)OC(CO)CO` [2-AG, 2-arachidonoylglycerol] was tested, and the Ki (hCB2R [1]; CHOK1_hCB2bgal membranes, 10 °C) was 97.3 nM, the “percentage specific [3H]RO6957022 binding (displacement)” value (“percentage specific … (displacement)” below) (hCB2R [1]; log [agonist] (M) -5) was -4.06% and 1.99% and 1.24% and the “percentage specific … (displacement)” value (hCB2R [1]; log [agonist] (M) -6) was 9.18% and 29.61% and 23.88%. For the same molecule, the “percentage specific … (displacement)” value (hCB2R [1]; log [agonist] (M) -7) was 74.28% and 92.58% and 77.97%, the “percentage specific … (displacement)” value (hCB2R [1]; log [agonist] (M) -8) was 95.23% and 106.70% and 113.70% and the Kd (hCB2R [2]; KD = koff/kon, read-out: Kinetic KD) was 42.7 nM. The “percentage specific [3H]RO6957022 binding (competition association)” value (hCB2R [2]; Time 1 min) was 2.75% and 8.28% and -0.30%, the “percentage specific [3H]RO6957022 binding (competition association)” value (hCB2R [2]; Time 3 min) was 14.15% and 22.81% and 17.03% and the “percentage specific [3H]RO6957022 binding (competition association)” value (hCB2R [2]; Time 5 min) was 22.93% and 20.44% and 8.60%. The “percentage specific [3H]RO6957022 binding (competition association)” value (hCB2R [2]; Time 7 min) was 18.57% and 22.56% and 19.64%, the “percentage specific [3H]RO6957022 binding (competition association)” value (hCB2R [2]; Time 10 min) was 21.07% and 23.19% and 30.43% and the “percentage specific [3H]RO6957022 binding (competition association)” value (hCB2R [2]; Time 20 min) was 26.97% and 35.00% and 33.48%. For the same molecule, the “percentage specific [3H]RO6957022 binding (competition association)” value (hCB2R [2]; Time 30 min) was 25.36% and 45.58% and 22.89%, the “percentage specific [3H]RO6957022 binding (competition association)” value (hCB2R [2]; Time 45 min) was 33.64% and 44.13% and 30.07% and the “percentage specific [3H]RO6957022 binding (competition association)” value (hCB2R [2]; Time 60 min) was 37.87% and 46.21% and 40.22%. For the same molecule, the “percentage specific [3H]RO6957022 binding (competition association)” value (hCB2R [2]; Time 90 min) was 43.62% and 64.89% and 33.23%, the “percentage specific [3H]RO6957022 binding (competition association)” value (hCB2R [2]; Time 120 min) was 44.54% and 60.70% and 44.33% and the “ET (engagement time)” value (hCB2R [2]; at 1 µM agonist, ET = 1/(kon ∙ 1 × 10-6)) was 18.8 ± 3.61 s. The Emax (CB2R WT [3]; maximum effect at 10 µM compared to WT (Suppl. Table 6)) was 85 ± 2%, the Emax (CB2R WT [3]; maximum effect compared to CP55,940) was 93 ± 22% and the “[35S]GTPγS binding, percentage of WT” value (CB2R WT [3]; log [ligand] (M) -5) was 81.88 percentage of WT and 83.76 percentage of WT and 88.90 percentage of WT. For the same molecule, the “[35S]GTPγS binding, percentage of WT” value (CB2R WT [3]; log [ligand] (M) -6) was 30.38 percentage of WT and 55.12 percentage of WT and 21.88 percentage of WT, the “[35S]GTPγS binding, percentage of WT” value (CB2R WT [3]; log [ligand] (M) -7) was 23.64 percentage of WT and 24.41 percentage of WT and 16.38 percentage of WT and the “[35S]GTPγS binding, percentage of WT” value (CB2R WT [3]; log [ligand] (M) -8) was 45.75 percentage of WT and 38.50 percentage of WT and 15.70 percentage of WT. The EC50 (CB2R WT [3]; [35S]GTPγS, HEK293T membranes transiently expressing CB2R WT) was 1260 nM, the “[35S]GTPγS binding, percentage of CP55,940” value (CB2R WT [3]; log [agonist] (M) -5) was 64.32% and 135.41% and 79.23% and the “[35S]GTPγS binding, percentage of CP55,940” value (CB2R WT [3]; log [agonist] (M) -6) was 23.86% and 33.33% and 42.53%. The “[35S]GTPγS binding, percentage of CP55,940” value (CB2R WT [3]; log [agonist] (M) -7) was 18.57% and 24.95% and 4.53%, the “[35S]GTPγS binding, percentage of CP55,940” value (CB2R WT [3]; log [agonist] (M) -8) was 35.93% and 23.91% and 2.02% and the EC50 (CB2R-L185^ECL2H [4]; HEK293T membranes) was 1260 nM. It also gave an Emax (CB2R-L185^ECL2H [4]; [9]) of 171 ± 16%, an EC50 (CB2R-L182^ECL2I; <5 when curve fit not finished) of over 10 µM and an Emax (CB2R-L182^ECL2I; [9]) of 15 ± 9%. For the same molecule, the EC50 (CB2R-E181^ECL2D; <5 when curve fit not finished) was over 10 µM, the Emax (CB2R-E181^ECL2D; [9]) was 22 ± 15% and the EC50 (CB2R-Quadruple^TM1,7 [5]; Quadruple TM1,7 mutant, <5 when curve fit not finished) was over 10 µM. The Emax (CB2R-Quadruple^TM1,7 [5]; Quadruple TM1,7 mutant, at 10 µM compared to WT, read-out: Emax (%)) was 6 ± 4%, the “[35S]GTPγS binding, percentage of WT” value (CB2R-Quadruple^TM1,7 [5]; log [ligand] (M) -5) was 11.95 percentage of WT and 6.85 percentage of WT and -0.68 percentage of WT and the “[35S]GTPγS binding, percentage of WT” value (CB2R-Quadruple^TM1,7 [5]; log [ligand] (M) -6) was 26.61 percentage of WT and 0.18 percentage of WT. The “[35S]GTPγS binding, percentage of WT” value (CB2R-Quadruple^TM1,7 [5]; log [ligand] (M) -7) was -4.94 percentage of WT and -35.40 percentage of WT and 2.05 percentage of WT, the “[35S]GTPγS binding, percentage of WT” value (CB2R-Quadruple^TM1,7 [5]; log [ligand] (M) -8) was -0.27 percentage of WT and -23.76 percentage of WT and 1.32 percentage of WT and the Ki (CB2R WT [6]) was 1580 nM. The Ki (CB2R-I110^3.29L) was 1580 nM, the Ki (CB2R-L185^ECL2H [7]) was 398 nM and the Ki (CB2R-Quadruple^TM1,7 [8]) was over 10 µM. It also gave an Agonist-mediated activation (hCB1R WT) of 1.3 ± 0.1 fold over its basal, an Agonist-mediated activation (CB1R-L359^6.51V) of 1.4 ± 0.2 fold over its basal and an Agonist-mediated activation (CB1R-H270^ECL2L) of 1.5 ± 0.1 fold over its basal. For the same molecule, the Agonist-mediated activation (CB1R I267ECL2L) was 1.1 ± 0.0 fold over its basal, the Agonist-mediated activation (CB1R D266ECL2E) was 1.5 ± 0.2 fold over its basal and the Agonist-mediated activation (CB1R QuadrupleTM1,7) was 1.8 ± 0.1 fold over its basal.
